Test results published in US20110262508A1, “ANTIMICROBIAL COMPOSITIONS, FORMULATIONS AND USES THEREOF” (priority 2007, published 2011).
Peptide text beside a SMILES is read from it. * marks the point of attachment. Biotin = O=C1N[C@H]2[C@H](CS[C@H]2CCCCC(=O)*)N1

What was measured:
A. baumannii = type: cell-based
How it was run: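 Laboratory strains and 50 clinical isolates of A. baumannii were tested by CLSI broth microdilution, with serially diluted peptide (0.1-64 μg) and about 1×10^5 C.F.U. per well, incubated aerobically overnight at 35±2° C. MIC was read visually. MBC came from subculturing clear wells, as ≥99.9% inoculum reduction.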

human RBC = assay: Hemolysis of RBC; type: cell-based
Protocol: Varying amounts of peptide were incubated with the washed RBC for one hour at room temperature. Intact cells were pelleted by gentle centrifugation, and hemolysis of each sample was determined by absorption measurement at 450 nm. A positive control sample consisted of RBC lysed by the addition of 0.1% Triton, for which hemolysis was also determined by absorption measurement at 450 nm. Percentages of lysed RBC incubated with peptide were then calculated by the ratio of absorbances at 450 nm for the sample relative to the absorbance at 450 nm of the positive control sample. The MHC10 value was calculated as the minimum peptide concentration to induce 10% cell lysis.

[1] = Cytotoxicity against Jurkat cells (CellTiter Blue); type: cell-based, human; settings: human
Protocol: (§1) The cytotoxicities of selected peptides against human T-lymphocytes, in particular Jurkat cells, was determined by growing 100 uL Jurkat cells in RPMI (approx. 5×10^5 cells/ml density) overnight at 37° C. under 5% CO2 atmosphere, in microtiter plate wells, in the presence and absence of peptides. Control reactions either lacked peptide (negative cytotoxicity control), or contained a buffer to completely lyse Jurkat cells (positive cytotoxicity control). The viabilities of cells were then determined by addition of 20 uL CellTiter Blue dye (Promega) to each well, and incubation of cells for a further 3 hrs at 37° C. Fluorescence values were measured for 1 sec at 540 nm/615 nm, and expressed relative to fluorescence values for negative and positive cytotoxicity control samples. Comparison with a fully lysed control allowed the calculation of a percentage killing for each peptide concentration. The MCC10 value was calculated as the minimum peptide concentration required to induce 10% cytotoxicity.

Jurkat cells = assay: Cytotoxicity against Jurkat cells (CellTiter Blue); type: cell-based, human
Protocol: as §1

[2] = test system: Escherichia coli strain BL21; type: cell-based; settings: summary of Table 6
Protocol: Synthetic peptides were tested for their ability to inhibit bacterial growth in liquid culture. […] 19606, Acinetobacter spp. ATCC 17903, Acinetobacter spp. ATCC 19004, Escherichia coli strain BL21, S. aureus, S. typhimurium strain AroA, P. aeruginosa or P. pneumotropica. After 5-6 hours of shaking at 37° C., growth was measured as absorbance at 595 nm. As a control, cultures were grown in the presence of 0.1% acetonitrile (i.e., the concentration present in 10 μM peptide).

Molecule | MIC (μM) for non-amidated Peptide (A. baumannii) [µM] | MHC10 (human RBC) [µM] | cytotoxicity at 12.5 μM [1] [%] | cytotoxicity at 25 μM [1] [%] | cytotoxicity at 50 μM [1] [%] | MCC10 (Jurkat cells) [µM] | inhibition of growth of E. coli [2]
CC[C@H](C)[C@H](NC(=O)[C@@H]1CCCN1C(=O)CCCC[C@@H]1SC[C@@H]2NC(=O)N[C@@H]21)C(=O)N1CCC[C@H]1C(=O)N[C@@H](Cc1ccccc1)C(=O)N[C@@H](Cc1ccccc1)C(=O)N[C@@H](CC(N)=O)C(=O)N[C@@H](CCCNC(=N)N)C(=O)N[C@H](C(=O)NCC(=O)N[C@@H](Cc1ccccc1)C(=O)N[C@@H](Cc1ccccc1)C(=O)N[C@@H](CS)C(=O)N[C@@H](CC(C)C)C(=O)N1CCC[C@H]1C(=O)N[C@@H](CCCCN)C(=O)N[C@@H](CC(N)=O)C(=O)N[C@@H](CC(C)C)C(=O)N[C@@H](CCCCN)C(=O)N[C@@H](CCCNC(=N)N)C(=O)N[C@@H](CO)C(=O)N[C@@H](CCCCN)C(=O)N[C@@H](Cc1ccccc1)C(=O)N[C@@H](CS)C(=O)O)[C@@H](C)O [Ac322] (Biotin-PIPFFNRTGFFCLPKNLKRSKFC-OH; N-terminus and C-terminus assumed) | 5 | 25 | 0 | 0 | 59 | 30 | 
CC[C@H](C)[C@H](NC(=O)[C@H](Cc1c[nH]cn1)NC(=O)[C@H](CO)NC(=O)[C@H](CC(C)C)NC(=O)[C@H](CS)NC(=O)[C@H](CS)NC(=O)[C@H](CCCNC(=N)N)NC(=O)[C@H](CCSC)NC(=O)[C@@H](NC(=O)[C@@H]1CCCN1C(=O)[C@H](CCC(N)=O)NC(=O)[C@H](Cc1c[nH]cn1)NC(=O)[C@H](CS)NC(=O)CCCC[C@@H]1SC[C@@H]2NC(=O)N[C@@H]21)[C@@H](C)O)C(=O)N[C@@H](CCCNC(=N)N)C(=O)N[C@@H](CCCNC(=N)N)C(=O)N[C@@H](CCCNC(=N)N)C(=O)N[C@@H](Cc1ccccc1)C(=O)N[C@@H](CCCNC(=N)N)C(=O)N[C@@H](CC(C)C)C(=O)O [Ac431] (Biotin-CHQPTMRCCLSHIRRRFRL-OH; N-terminus and C-terminus assumed) | 15 | 25 | 4 | 15 | 29 | 20 | 
tachyplesin-1 [reference compound] |  |  |  |  |  |  | inhibited growth of E. coli significantly
CC(C)C[C@H](NC(=O)[C@H](CC(N)=O)NC(=O)[C@H](CCCCN)NC(=O)[C@@H]1CCCN1C(=O)[C@H](CC(C)C)NC(=O)[C@H](CS)NC(=O)[C@H](Cc1ccccc1)NC(=O)[C@H](Cc1ccccc1)NC(=O)CNC(=O)[C@@H](NC(=O)[C@H](CCCNC(=N)N)NC(=O)CCCC[C@@H]1SC[C@@H]2NC(=O)N[C@@H]21)[C@@H](C)O)C(=O)N[C@@H](CCCCN)C(=O)N[C@@H](CCCNC(=N)N)C(=O)N[C@@H](CO)C(=O)N[C@@H](CCCCN)C(=O)N[C@@H](Cc1ccccc1)C(=O)N[C@@H](CS)C(=O)N[C@@H](C)C(=O)N[C@@H](Cc1ccccc1)C(=O)N[C@@H](CC(C)C)C(=O)N[C@@H](CC(=O)O)C(=O)N1CCC[C@H]1C(=O)N[C@H](C(=O)O)[C@@H](C)O [Ac323] (Biotin-RTGFFCLPKNLKRSKFCAFLDPT-OH; N-terminus and C-terminus assumed) | 20 | 30 | 9 | 31 | 49 | 13 | 
CC(C)C[C@H](NC(=O)[C@H](CC(=O)O)NC(=O)[C@H](CO)NC(=O)CCCC[C@@H]1SC[C@@H]2NC(=O)N[C@@H]21)C(=O)NCC(=O)N[C@@H](CCCCN)C(=O)N[C@@H](CO)C(=O)NCC(=O)N[C@@H](C)C(=O)NCC(=O)N[C@@H](Cc1c[nH]c2ccccc12)C(=O)N[C@@H](CCCNC(=N)N)C(=O)N[C@@H](Cc1c[nH]c2ccccc12)C(=O)N[C@@H](CCCNC(=N)N)C(=O)N[C@@H](C)C(=O)N[C@@H](CS)C(=O)N[C@@H](CC(N)=O)C(=O)N[C@H](C(=O)N[C@@H](CC(C)C)C(=O)N[C@@H](CO)C(=O)N[C@@H](CCCCN)C(=O)N[C@@H](CS)C(=O)N[C@@H](CCCNC(=N)N)C(=O)NCC(=O)O)[C@@H](C)O [Ac378] (Biotin-SDLGKSGAGWRWRACNTLSKCRG-OH; N-terminus and C-terminus assumed) | 12.5 | 50 | 0 | 0 | 35 | 30 | 
CC(C)C[C@H](NC(=O)[C@H](Cc1ccccc1)NC(=O)CNC(=O)[C@H](CO)NC(=O)[C@@H]1CCCN1C(=O)[C@H](Cc1c[nH]c2ccccc12)NC(=O)[C@@H](NC(=O)[C@@H]1CCCN1C(=O)[C@H](CCCNC(=N)N)NC(=O)[C@@H](NC(=O)[C@H](C)NC(=O)[C@H](CS)NC(=O)[C@H](CCCNC(=N)N)NC(=O)[C@H](CO)NC(=O)[C@H](CO)NC(=O)CCCC[C@@H]1SC[C@@H]2NC(=O)N[C@@H]21)C(C)C)C(C)C)C(=O)N[C@@H](CCCNC(=N)N)C(=O)N[C@@H](CCCNC(=N)N)C(=O)N[C@@H](CC(C)C)C(=O)N[C@@H](CO)C(=O)N[C@@H](CC(=O)O)C(=O)N[C@@H](CCCNC(=N)N)C(=O)N[C@@H](CS)C(=O)N[C@@H](CS)C(=O)O [Ac328] (Biotin-SSRCAVRPVWPSGFLRRLSDRCC-OH; N-terminus and C-terminus assumed) | 12.5 | 20 | 1 | 17 | 32 | 20 | 
CC[C@H](C)[C@H](NC(=O)[C@H](Cc1c[nH]c2ccccc12)NC(=O)[C@H](CCCNC(=N)N)NC(=O)[C@H](CO)NC(=O)[C@H](CCCNC(=N)N)NC(=O)[C@H](CCCNC(=N)N)NC(=O)[C@H](CO)NC(=O)[C@H](CCCNC(=N)N)NC(=O)[C@H](CCCNC(=N)N)NC(=O)[C@H](Cc1ccc(O)cc1)NC(=O)CNC(=O)CCCC[C@@H]1SC[C@@H]2NC(=O)N[C@@H]21)C(=O)N[C@@H](CS)C(=O)N[C@@H](CO)C(=O)N[C@@H](CCSC)C(=O)N[C@@H](C)C(=O)N[C@@H](CCCNC(=N)N)C(=O)N[C@@H](CCCNC(=N)N)C(=O)N[C@@H](CO)C(=O)N[C@@H](CCCNC(=N)N)C(=O)N[C@@H](CCCNC(=N)N)C(=O)N[C@@H](CCCNC(=N)N)C(=O)N[C@@H](CCCNC(=N)N)C(=O)N1CCC[C@H]1C(=O)O [Ac389] (Biotin-GYRRSRRSRWICSMARRSRRRRP-OH) | 12.5 | 50 | 0 | 34 | 95 | 15 | 
CC(C)C[C@H](NC(=O)[C@H](CCC(N)=O)NC(=O)[C@H](CCCNC(=N)N)NC(=O)[C@H](Cc1ccccc1)NC(=O)[C@H](Cc1ccc(O)cc1)NC(=O)[C@H](CC(C)C)NC(=O)[C@H](Cc1c[nH]c2ccccc12)NC(=O)[C@H](Cc1ccccc1)NC(=O)[C@H](CCCNC(=N)N)NC(=O)[C@H](CCCNC(=N)N)NC(=O)[C@H](CO)NC(=O)[C@H](CC(=O)O)NC(=O)[C@H](CC(C)C)NC(=O)[C@H](Cc1c[nH]c2ccccc12)NC(=O)[C@H](Cc1ccccc1)NC(=O)[C@H](CC(=O)O)NC(=O)[C@H](CCCNC(=N)N)NC(=O)[C@H](CCCNC(=N)N)NC(=O)[C@H](C)NC(=O)[C@H](CCC(N)=O)NC(=O)[C@H](CO)NC(=O)[C@H](CCCNC(=N)N)NC(=O)CCCC[C@@H]1SC[C@@H]2NC(=O)N[C@@H]21)C(=O)N[C@@H](Cc1ccccc1)C(=O)O [Ac474] (Biotin-RSQARRDFWLDSRRFWLYFRQLF-OH) | 25 | 5 | 13 | 20 | 81 | 10 | 
CC[C@H](C)[C@H](NC(=O)[C@H](Cc1ccccc1)NC(=O)[C@H](CC(C)C)NC(=O)[C@H](CCC(N)=O)NC(=O)[C@H](CCCNC(=N)N)NC(=O)[C@H](Cc1ccccc1)NC(=O)[C@H](Cc1ccc(O)cc1)NC(=O)[C@H](CC(C)C)NC(=O)[C@H](Cc1c[nH]c2ccccc12)NC(=O)[C@H](Cc1ccccc1)NC(=O)[C@H](CCCNC(=N)N)NC(=O)[C@H](CCCNC(=N)N)NC(=O)[C@H](CO)NC(=O)[C@H](CC(=O)O)NC(=O)[C@H](CC(C)C)NC(=O)[C@H](Cc1c[nH]c2ccccc12)NC(=O)[C@H](Cc1ccccc1)NC(=O)[C@H](CC(=O)O)NC(=O)[C@H](CCCNC(=N)N)NC(=O)CCCC[C@@H]1SC[C@@H]2NC(=O)N[C@@H]21)C(=O)N[C@@H](Cc1c[nH]cn1)C(=O)N[C@@H](CC(N)=O)C(=O)N1CCC[C@H]1C(=O)N[C@@H](CCCCN)C(=O)O [Ac475] (Biotin-RDFWLDSRRFWLYFRQLFIHNPK-OH) | 15 | 10 | 4 | 4 | 60 | 35 | 
